Source: patent publication US20250320189A1, “NEW DERIVATIVES FOR TREATING TRPM3 MEDIATED DISORDERS” (Katholieke Universiteit Leuven, priority 2022, published 2025)

target: T1, mouse TRPM3α2 (mTRPM3) ion channel (Mus musculus, UniProt J9SQF3); assay: Monitoring the TRPM3 ion channel driven Ca2+ uptake (Fluo-4 AM assay); assay type: cell-based; conditions: mTRPM3alpha2 overexpressing flip-in HEK293 cells, stimulated with Pregnenolone sulfate (PS) 50 μM
T1 construct: expressed in transfected cells; host or cells: flip-in (Flp-In) HEK293
Experimental: In order to monitor the inhibition of the mouse TRPM3α2 (mTRPM3) ion channel by the compounds of the invention, a cellular system making use of an mTRPM3alpha2 or hTRPM3 overexpressing cell line (flip-in HEK293) was used. The TRPM3 channel was stimulated/opened with Pregnenolone sulfate (PS) (50 μM) which results in Ca^2+ influx.
For mTRPM3, the intracellular Ca^2+ was measured with a Calcium responsive dye, Fluor-4 AMV ester (Invitrogen). Cells were cultured until a confluence of 80-90%, washed with Versene (Invitrogen) and detached from the surface by a short incubation with 0.05% Trypsin (Invitrogen). The trypsination process was stopped by the addition of complete cell culture medium (DMEM, glutamax, 10% FCS, NEAA,Pen-Strep). Cells were collected and resuspended in Krebs buffer without Calcium at RT.
Prior the cell seeding (±2000 cells/well into a black, 384 well plate (Greiner)) the diluted compound was added in the assay plate, together with the PS dissolved in Krebs buffer containing Calcium. […] Directly after cell addition the plates were read on an Envision fluorescence reader (PerkinElmer) by an Excitation of 485 nm and emission at 535 nm.
Channel inhibition was calculated compared to a non-PS stimulated control versus a condition stimulated with PS (50 μM) with vehicle. The ability of the compounds of the invention to inhibit this activity was determined as: Percentage inhibition=[1−((RFU determined for sample with test compound present−RFU determined for sample with positive control inhibitor) divided by (RFU determined in the presence of vehicle−RFU determined for sample with positive control inhibitor))]*100.
The activities of the Example compounds tested are depicted in the table below. The activity ranges A, B and C refer to IC50 values in the Fluo-4 AM assay as follows: “A”: IC50<1 μM; “B”: 1 μM≤IC50≤20 μM and “C”: IC50>20 μM

T1 sequence (J9SQF3 1-1709 isoform J9SQF3-12): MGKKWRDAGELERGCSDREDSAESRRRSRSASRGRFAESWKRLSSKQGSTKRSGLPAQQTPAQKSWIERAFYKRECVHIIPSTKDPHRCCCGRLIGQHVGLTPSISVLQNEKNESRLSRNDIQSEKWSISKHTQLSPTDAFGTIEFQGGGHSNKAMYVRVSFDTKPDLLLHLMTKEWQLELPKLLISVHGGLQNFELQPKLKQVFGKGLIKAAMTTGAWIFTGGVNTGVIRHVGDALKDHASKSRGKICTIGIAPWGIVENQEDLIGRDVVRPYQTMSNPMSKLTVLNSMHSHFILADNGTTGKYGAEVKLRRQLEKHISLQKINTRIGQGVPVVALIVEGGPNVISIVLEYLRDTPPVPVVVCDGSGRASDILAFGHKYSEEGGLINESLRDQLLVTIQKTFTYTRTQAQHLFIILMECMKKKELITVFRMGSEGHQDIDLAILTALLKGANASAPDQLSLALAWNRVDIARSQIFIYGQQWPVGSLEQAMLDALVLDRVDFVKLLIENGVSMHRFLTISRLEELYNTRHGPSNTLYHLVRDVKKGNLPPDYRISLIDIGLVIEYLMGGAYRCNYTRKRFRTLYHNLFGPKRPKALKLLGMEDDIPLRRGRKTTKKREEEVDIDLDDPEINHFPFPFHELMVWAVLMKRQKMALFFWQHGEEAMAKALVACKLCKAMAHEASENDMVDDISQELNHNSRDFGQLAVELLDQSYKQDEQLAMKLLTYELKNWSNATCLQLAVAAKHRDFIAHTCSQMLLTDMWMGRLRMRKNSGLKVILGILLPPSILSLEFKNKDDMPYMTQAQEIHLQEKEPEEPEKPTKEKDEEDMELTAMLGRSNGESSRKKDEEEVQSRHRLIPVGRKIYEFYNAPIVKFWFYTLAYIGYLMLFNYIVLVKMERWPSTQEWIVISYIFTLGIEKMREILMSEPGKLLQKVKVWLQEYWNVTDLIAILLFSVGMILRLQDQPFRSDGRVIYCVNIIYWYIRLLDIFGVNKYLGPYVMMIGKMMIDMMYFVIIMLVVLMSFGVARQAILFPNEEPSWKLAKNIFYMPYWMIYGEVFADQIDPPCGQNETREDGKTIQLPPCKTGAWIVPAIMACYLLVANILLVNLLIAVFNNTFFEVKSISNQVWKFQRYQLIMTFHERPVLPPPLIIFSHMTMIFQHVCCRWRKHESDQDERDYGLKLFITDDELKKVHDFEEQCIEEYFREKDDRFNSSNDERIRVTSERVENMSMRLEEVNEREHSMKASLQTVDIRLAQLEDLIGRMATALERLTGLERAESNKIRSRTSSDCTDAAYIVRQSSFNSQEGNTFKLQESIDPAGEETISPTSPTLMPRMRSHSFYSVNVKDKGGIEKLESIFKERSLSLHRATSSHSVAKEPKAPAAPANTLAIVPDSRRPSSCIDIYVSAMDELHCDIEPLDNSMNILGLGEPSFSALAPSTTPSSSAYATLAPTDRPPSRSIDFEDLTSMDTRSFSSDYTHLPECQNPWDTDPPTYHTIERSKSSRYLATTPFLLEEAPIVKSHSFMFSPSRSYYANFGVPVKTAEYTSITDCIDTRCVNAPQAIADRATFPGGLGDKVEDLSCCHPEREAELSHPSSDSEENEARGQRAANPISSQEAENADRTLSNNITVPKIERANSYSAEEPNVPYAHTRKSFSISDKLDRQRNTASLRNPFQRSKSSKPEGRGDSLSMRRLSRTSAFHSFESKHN

SMILES	IC50 [µM]
Cc1oc2ccc(OCC(F)F)cc2c1C(=O)NC(C)(CO)C(N)=O (single isomer, unassigned) [Cpd 041 - En2, 2-{[5-(2,2-difluoroethoxy)-2-methyl-1-benzofuran-3-yl]formamido}-3-hydroxy-2-methylpropanamide]	1 to 20
Cc1oc2ccc(OCC(C)C)cc2c1C(=O)NC1CCNCC1(F)F (single isomer, unassigned) [Cpd 042 - En2, N-(3,3-difluoropiperidin-4-yl)-2-methyl-5-(2-methylpropoxy)-1-benzofuran-3-carboxamide]	< 1
Cc1oc2ccc(OCC(C)C)cc2c1C(=O)NC1CCNCC1(F)F (single isomer, unassigned) [Cpd 042-En1, N-(3,3-difluoropiperidin-4-yl)-2-methyl-5-(2-methylpropoxy)-1-benzofuran-3-carboxamide]	1 to 20
Cc1oc2ccc(OCC(C)(C)C)cc2c1C(=O)NC1CCNCC1(F)F (single isomer, unassigned) [Cpd 043-En1, N-(3,3-difluoropiperidin-4-yl)-5-(2,2-dimethylpropoxy)-2-methyl-1-benzofuran-3-carboxamide]	1 to 20
Cc1oc2ccc(OCC(C)(C)C)cc2c1C(=O)NC1CCNCC1(F)F (single isomer, unassigned) [Cpd 043-En2, N-(3,3-difluoropiperidin-4-yl)-5-(2,2-dimethylpropoxy)-2-methyl-1-benzofuran-3-carboxamide]	1 to 20
Cc1oc2ccc(OCC(F)F)cc2c1C(=O)NC1(C(N)=O)CCOC1 (single isomer, unassigned) [Cpd 044 - En1, N-(3-carbamoyloxolan-3-yl)-5-(2,2-difluoroethoxy)-2-methyl-1-benzofuran-3-carboxamide]	1 to 20
Cc1oc2ccc(OCC(F)F)cc2c1C(=O)NC1(C(N)=O)CCOC1 (single isomer, unassigned) [Cpd 044 - En2, N-(3-carbamoyloxolan-3-yl)-5-(2,2-difluoroethoxy)-2-methyl-1-benzofuran-3-carboxamide]	< 1
Cc1oc2cc(F)c(OCC3CC3)cc2c1C(=O)NC(C)(CO)C(N)=O (single isomer, unassigned) [Cpd 045 - En1, 2-{[5-(cyclopropylmethoxy)-6-fluoro-2-methyl-1-benzofuran-3-yl]formamido}-3-hydroxy-2-methylpropanamide]	< 1
Cc1oc2cc(F)c(OCC3CC3)cc2c1C(=O)NC(C)(CO)C(N)=O (single isomer, unassigned) [Cpd 045 - En2, 2-{[5-(cyclopropylmethoxy)-6-fluoro-2-methyl-1-benzofuran-3-yl]formamido}-3-hydroxy-2-methylpropanamide]	< 1
Cc1oc2ccc(OCC3CC3)cc2c1C(=O)NC(C)(CO)CC(F)F (single isomer, unassigned) [Cpd 046 - En1, 5-(cyclopropylmethoxy)-N-(4,4-difluoro-1-hydroxy-2-methylbutan-2-yl)-2-methyl-1-benzofuran-3-carboxamide]	< 1
Cc1oc2ccc(OCC3CC3)cc2c1C(=O)NC(C)(CO)CC(F)F (single isomer, unassigned) [Cpd 046 - En2, 5-(cyclopropylmethoxy)-N-(4,4-difluoro-1-hydroxy-2-methylbutan-2-yl)-2-methyl-1-benzofuran-3-carboxamide]	< 1
Cc1oc2ccc(OCC(F)(F)F)cc2c1C(=O)NC(C)(CO)C(N)=O (single isomer, unassigned) [Cpd 047 - En1, 3-hydroxy-2-methyl-2-{[2-methyl-5-(2,2,2-trifluoroethoxy)-1-benzofuran-3-yl]formamido}propanamide]	1 to 20
Cc1oc2ccc(OCC(F)(F)F)cc2c1C(=O)NC(C)(CO)C(N)=O (single isomer, unassigned) [Cpd 047 - En2, 3-hydroxy-2-methyl-2-{[2-methyl-5-(2,2,2-trifluoroethoxy)-1-benzofuran-3-yl]formamido}propanamide]	< 1
Cc1oc2ccc(OCC3(C(F)(F)F)CC3)cc2c1C(=O)NC(C)(CO)C(N)=O (single isomer, unassigned) [Cpd 048 - En1, 3-hydroxy-2-methyl-2-[(2-methyl-5-{[1-(trifluoromethyl)cyclopropyl]methoxy}-1-benzofuran-3-yl)formamido]propanamide]	< 1
Cc1oc2ccc(OCC3(C(F)(F)F)CC3)cc2c1C(=O)NC(C)(CO)C(N)=O (single isomer, unassigned) [Cpd 048 - En2, 3-hydroxy-2-methyl-2-[(2-methyl-5-{[1-(trifluoromethyl)cyclopropyl]methoxy}-1-benzofuran-3-yl)formamido]propanamide]	< 1
Cc1oc2ccc(OCC3CC3(C)C)cc2c1C(=O)NC(C)(CO)C(N)=O (single isomer, unassigned) [Cpd 049 - En1, 2-({5-[(2,2-dimethylcyclopropyl)methoxy]-2-methyl-1-benzofuran-3-yl}formamido)-3-hydroxy-2-methylpropanamide]	< 1
Cc1oc2ccc(OCC3CC3(C)C)cc2c1C(=O)NC(C)(CO)C(N)=O (single isomer, unassigned) [Cpd 049 - En2, 2-({5-[(2,2-dimethylcyclopropyl)methoxy]-2-methyl-1-benzofuran-3-yl}formamido)-3-hydroxy-2-methylpropanamide]	< 1
Cc1oc2ccc(OCC3CC3(C)C)cc2c1C(=O)NC(C)(CO)C(N)=O (single isomer, unassigned) [Cpd 049 - En3, 2-({5-[(2,2-dimethylcyclopropyl)methoxy]-2-methyl-1-benzofuran-3-yl}formamido)-3-hydroxy-2-methylpropanamide]	< 1
Cc1oc2ccc(OCC3CC3(C)C)cc2c1C(=O)NC(C)(CO)C(N)=O (single isomer, unassigned) [Cpd 049 - En4, 2-({5-[(2,2-dimethylcyclopropyl)methoxy]-2-methyl-1-benzofuran-3-yl}formamido)-3-hydroxy-2-methylpropanamide]	< 1
Cc1oc2ccc(OC[C@@H]3C[C@@H]4C[C@@H]4C3)cc2c1C(=O)NC(C)(CO)C(N)=O (single isomer, unassigned) [Cpd 050 - En1, Cis-2-{[5-({bicyclo[3.1.0]hexan-3-yl}methoxy)-2-methyl-1-benzofuran-3-yl]formamido}-3-hydroxy-2-methylpropanamide]	1 to 20
Cc1oc2ccc(OC[C@@H]3C[C@@H]4C[C@@H]4C3)cc2c1C(=O)NC(C)(CO)C(N)=O (single isomer, unassigned) [Cpd 050 - En2, Cis-2-{[5-({bicyclo[3.1.0]hexan-3-yl}methoxy)-2-methyl-1-benzofuran-3-yl]formamido}-3-hydroxy-2-methylpropanamide]	< 1
Cc1oc2ccc(OC[C@H]3C[C@@H]4C[C@@H]4C3)cc2c1C(=O)NC(C)(CO)C(N)=O (single isomer, unassigned) [Cpd 051 - En1, Trans-2-{[5-({bicyclo[3.1.0]hexan-3-yl}methoxy)-2-methyl-1-benzofuran-3-yl]formamido}-3-hydroxy-2-methylpropanamide]	< 1
Cc1oc2ccc(OC[C@H]3C[C@@H]4C[C@@H]4C3)cc2c1C(=O)NC(C)(CO)C(N)=O (single isomer, unassigned) [Cpd 051 - En2, Trans-2-{[5-({bicyclo[3.1.0]hexan-3-yl}methoxy)-2-methyl-1-benzofuran-3-yl]formamido}-3-hydroxy-2-methylpropanamide]	< 1
